For three molecules, EC50 results are on record in patent publication US9932353B2, “Imidazopyrimidine macrocycles as inhibitors of human immunodeficiency virus replication” (VIIV HEALTHCARE UK (NO. 5) LIMITED, priority 2014, dated 2018).

Like-named read-outs stand apart in the source and are kept apart here.

This assay has as its system recombinant NL-RLuc virus (HIV NL4-3 with Renilla Luciferase) in MT-2 cells. Kind of assay: Inhibition of HIV replication (NL-RLuc virus in MT-2 cells, luciferase readout). The format is cell-based. The source says:
Inhibition of HIV Replication:
A recombinant NL-RLuc proviral clone was constructed in which a section of the nef gene from NL4-3 was replaced with the Renilla Luciferase gene. This virus is fully infectious and can undergo multiple cycles of replication in cell culture. In addition, the luciferous reporter provides a simple and easy method for quantitating the extent of virus growth and consequently, the antiviral activity of test compounds. The plasmid pNLRLuc contains the proviral NL-Rluc DNA cloned into pUC18 at the PvuII site. The NL-RLuc virus was prepared by transfection of 293T cells with the plasmid pNLRLuc. Transfections were performed using the LipofectAMINE PLUS kit from Invitrogen (Carlsbad, Calif.) according to the manufacturer and the virus generated was titered in MT-2 cells. For susceptibility analyses, the titrated virus was used to infect MT-2 cells in the presence of compound, and after 5 days of incubation, cells were processed and quantitated for virus growth by the amount of expressed luciferase. Assay media was RPMI 1640 supplemented with 10% heat inactivated fetal bovine serum (FBS), 100 units/ml penicillin G/100 units/ml streptomycin, 10 mM HEPES buffer pH 7.55 and 2 mM L-glutamine. The results from at least 2 experiments were used to calculate the EC50 values. Luciferase was quantitated using the Dual Luciferase kit from Promega (Madison, Wis.). Susceptibility of viruses to compounds was determined by incubation in the presence of serial dilutions of the compound. The 50% effective concentration (EC50) was calculated by using the exponential form of the median effect equation where (Fa)=1/[1+(ED50/drug conc.)^m] (Johnson V A, Byington R T. Infectivity Assay. In Techniques in HIV Research. ed. Aldovini A, Walker B D. 71-76. New York: Stockton Press. 1990).

Where [1] appears, read: NL-RLuc virus, MT-2 cells, 5 days of incubation, 10% FBS, luciferase, read-out: EC50.

Consider `Cc1ccc2c(c1)-c1cccc(c1)-c1cn3c(c([C@H](OC(C)(C)C)C(=O)O)c(C)nc3n1)N1CCC(C)(CC1)OCCCC[C@H](C)O2` [Example 1, (2S)-2-(tert-Butoxy)-2-[(22S)-4,17,22,28-tetramethyl-21,27-dioxa-1,5,7,34-tetraazahexacyclo[26.2.2.1^6,^9.1^10,^14.0^2,^7.0^15,^20]tetratriaconta-2,4,6(34),8,10(33),11,13,15(20),16,18-decaen-3-yl]acetic Acid], for which the concentration giving a half-maximal response (EC50) (as a rule, the concentration at which the effect is half-maximal) (MT2, 120 h) amounted to 8 nM.

As to `Cc1nc2nc3cn2c(c1[C@H](OC(C)(C)C)C(=O)O)N1CCC(C)(CC1)OCCCCC(C)Oc1ccc(F)cc1-c1cccc-3c1` (stereo partly drawn) [Example 2, (2S)-2-(tert-butoxy)-2-[(22S/R)-17-fluoro-4,22,28-trimethyl-21,27-dioxa-1,5,7,34-tetraazahexacyclo[26.2.2.1^6,^9.1^10,^14.0^2,^7.0^15,^20]tetratriaconta-2,4,6(34),8,10(33),11,13,15(20),16,18-decaen-3-yl]acetic Acid], the 50% effective concentration (EC50) under setting [1] was 8 nM.

Regarding “(2S)-2-(tert-butoxy)-2-[(22S/R)-17-fluoro-4,22,28-trimethyl-21,27-dioxa-1,5,7,34-tetraazahexacyclo[26.2.2.1^6,^9.1^10,^14.0^2,^7.0^15,^20]tetratriaconta-2,4,6(34),8,10(33),11,13,15(20),16,18-decaen-3-yl]acetic Acid [Example 3]”, the concentration giving a half-maximal response (EC50) under setting [1] came to 77 nM.
